Assays:
[1] = toxicity in HEK-293 cells (EZ4U); format: cell-based, human; conditions: human, HEK-293 cells; reference doxorubicin at 0.2 and 0.05 µM; 48 h incubation; read-out: HEK-293 cell viability
Method: The used reference cytostatic drug doxorubicin (DX) decreased cell viability <50% under the same conditions at very low concentrations of 0.2 and 0.05 µM. […] Oxidative damage was induced by very high toxic levels of hydrogen peroxide (H2O2; 300 µM), the popular cell model for PD research, in neuroblastoma SH-SY5Y cell line. […] Salsolinol (SAL) was used at a concentration of 50 µM as the reference compound with the proven neuroprotection activity.
The HEK-293 cells were seeded at a concentration of 1.5 × 10^4 cells/well in 200 μL culture medium and incubated for 24 h at 37 °C and 5% CO2. […] Then, 25 μL EZ4U labelling mixture (Biomedica, Vienna, Austria) was added and the cells were incubated for 2 h. The spectrophotometric absorbance of the samples was measured using a microplate reader (EnSpire, PerkinElmer, Waltham, MA, USA) at 492 nm. All measurements were performed in triplicate, and results are shown as mean ± SD.

hH3R = conditions: read-out: H3R Ki; cited from earlier work
AChE = test system: AChE; parameters: method as in PMID 28861918; conditions: cited from earlier work
BuChE = test system: BuChE; parameters: method as in PMID 28861918; conditions: cited from earlier work

SMILES: COc1cccc2c1C(=O)c1c(O)c3c(c(O)c1C2=O)C[C@@](O)(C(=O)CO)C[C@@H]3O[C@H]1C[C@H](N)[C@H](O)[C@H](C)O1 [doxorubicin (DX), doxorubicin, reference compound]
- viability at 48 h [1]: < 50%

SMILES: C#CCN(C)Cc1cc2cc(OCCCN3CCCCC3)ccc2n1C [Contilisant]
- Ki (hH3R): 0.011 µM
- IC50 (AChE): 0.53 µM
- IC50 (BuChE): 1.69 µM

Source: article PMC7279487, “Dual Target Ligands with 4-tert-Butylphenoxy Scaffold as Histamine H3 Receptor Antagonists and Monoamine Oxidase B Inhibitors” (International Journal of Molecular Sciences, 2020)
